In patent US20060134001A1, “Conjugated infrared fluorescent substances for detection of cell death” (priority 2002, published 2006):

Key:
[1] = test system: mitochondria and/or endoplasmic reticulum; assay: Subcellular partitioning of dye; format: cell-based; details: concentration-dependent
[2] = In vivo early half-life of dye
[3] = test system: vasculature of the heart; assay: Near-infrared fluorescence imaging of heart vasculature with vascular contrast agent after LAD artery ischemia; format: in vivo; details: rat, 12.5 nmol injected, 24 hours after LAD artery ischemia; compared with 2,3,5-triphenyltetrazolium chloride staining
Description: The otherwise invisible near-infrared fluorescence from indocyanine green has been pseudo-colored white prior to superimposition on the color video (anatomic) image. […] In pseudo-colored magenta are the red fluorescent microbeads injected during initial ischemia. […] The area of the heart internal to this “ring” of perfusion is termed the “area at risk”, i.e., the area of myocardium that had no blood flow during LAD ligation. […] Finally, the near-infrared fluorescence signal from injection of 25 μg of human annexin V covalently conjugated with IRDye78 (a near-infrared fluorophore) is shown pseudo-colored in green.

[4] = Solubility of dye in blood; details: small molecule form
[5] = human annexin V; read-out: affinity (kd) for phosphatidylserine (PS); cited from earlier work
[6] = cited from earlier work
[7] = test system: apoptotic and/or necrotic cells; assay: Near-infrared fluorescence imaging of labeled annexin V in rat heart after LAD artery ischemia/reperfusion; format: in vivo; details: 25 μg injected, imaged 24 hours after 20 minutes LAD ligation and reperfusion
Experimental: A branch of the left anterior descending (LAD) artery of the rat heart was ligated with a silk suture. During ligation, the aorta was cross-clamped and 10 μm red fluorescent microbeads were injected into the ventricle. […] After 20 minutes of ligation, the suture was removed, and the heart was permitted to re-perfuse.
The otherwise invisible near-infrared fluorescence from indocyanine green has been pseudo-colored white prior to superimposition on the color video (anatomic) image. […] In pseudo-colored magenta are the red fluorescent microbeads injected during initial ischemia. This area was well perfused during ischemia. The area of the heart internal to this “ring” of perfusion is termed the “area at risk”, i.e., the area of myocardium that had no blood flow during LAD ligation. The area of avascularity/infarct identified with indocyanine green is contained within the area at risk. Finally, the near-infrared fluorescence signal from injection of 25 μg of human annexin V covalently conjugated with IRDye78 (a near-infrared fluorophore) is shown pseudo-colored in green. The green areas, thus, represent apoptotic and/or necrotic cells, i.e., those areas within the area at risk that have actually succumbed to the ischemia. […] Presumably, this area was supplied by either diffusion or smaller collateral vessels fed by the well-perfused area.

Compound: CN1C(=CC=C2CCCC(C=CC3=[N+](C)c4ccccc4C3(C)C)=C2Cl)C(C)(C)c2ccccc21.[O-][Cl+3]([O-])([O-])[O-] [IR-786]
- partitioning into organelles [1]: partitions efficiently into mitochondria and/or endoplasmic reticulum

Compound: CC1(C)C(/C=C/C=C/C=C/C=C2\N(CCCCS(=O)(=O)O)c3ccc4ccccc4c3C2(C)C)=[N+](CCCCS(=O)(=O)[O-])c2ccc3ccccc3c21 [Indocyanine green, indocyanine green]
- in vivo early half-life [2]: shorter half-life
- vascular staining of ischemic heart [3]: reveals an area of avascularity that corresponds to infarcted tissue
- solubility in blood [4]: somewhat less soluble in blood

Compound: Human annexin V: human annexin V, molecular weight 36 kd, binds phosphatidylserine; targeting moiety
- Kd [5]: 7 nM
- dose at which pharmacological effects (anti-coagulant effects) begin ([6]; in vivo): greater than 300 μg protein/kg
- pharmacologic or toxic side effects at tracer doses ([6]; tracer doses, e.g. 10 μg protein/kg to 50 μg protein/kg, animal or human subjects): no reported pharmacologic or toxic side effects

Compound: human annexin V covalently conjugated with IRDye78: annexin V reacted under aqueous conditions with the N-hydroxysuccinimide ester of IRDye78, a near-infrared fluorophore
- near-infrared fluorescence signal localisation in ischemic heart [7]: several areas of infarcted myocardium within the area at risk
